# Source: ChEMBL document CHEMBL1255467, “Comparative in vitro antimicrobial activities of torezolid (TR-700), the active moiety of a new oxazolidinone, torezolid phosphate (TR-701), determination of tentative disk diffusion interpretive criteria, and quality control ranges” (2010)
# Legend:
# Staphylococcus aureus [1] = assay: Antimicrobial activity against linezolid-resistant Staphylococcus aureus by broth dilution method; type: functional
# Staphylococcus aureus [2] = assay: Antimicrobial activity against methicillin-resistant Staphylococcus aureus by broth dilution method; type: functional
# Staphylococcus aureus [3] = assay: Antimicrobial activity against methicillin-susceptible Staphylococcus aureus by broth dilution method; type: functional
# Staphylococcus aureus [4] = assay: Antimicrobial activity against Staphylococcus aureus by broth dilution method; type: functional
# Staphylococcus sp. [5] = assay: Antimicrobial activity against Staphylococcus sp. by broth dilution method; type: functional
# Staphylococcus sp. [6] = assay: Antimicrobial activity against methicillin-resistant coagulase-negative Staphylococcus by broth dilution method; type: functional
# Staphylococcus aureus [7] = assay: Antimicrobial activity against vancomycin-nonsusceptible Staphylococcus aureus by broth dilution method; type: functional
# Staphylococcus sp. [8] = assay: Antimicrobial activity against methicillin-susceptible coagulase-negative Staphylococcus by broth dilution method; type: functional
# Enterococcus sp. = assay: Antimicrobial activity against Enterococcus by broth dilution method; type: functional
# Enterococcus faecalis [9] = assay: Antimicrobial activity against vancomycin-resistant Enterococcus faecalis by broth dilution method; type: functional
# Enterococcus faecalis [10] = assay: Antimicrobial activity against vancomycin-susceptible Enterococcus faecalis by broth dilution method; type: functional
# Enterococcus faecium [11] = assay: Antimicrobial activity against vancomycin-resistant Enterococcus faecium by broth dilution method; type: functional
# Enterococcus faecium [12] = assay: Antimicrobial activity against vancomycin-susceptible Enterococcus faecium by broth dilution method; type: functional
# Streptococcus pneumoniae [13] = assay: Antimicrobial activity against Streptococcus pneumoniae by broth dilution method; type: functional
# Streptococcus pneumoniae [14] = assay: Antimicrobial activity against penicillin-susceptible Streptococcus pneumoniae by broth dilution method; type: functional
# Streptococcus pneumoniae [15] = assay: Antimicrobial activity against penicillin-intermediate Streptococcus pneumoniae by broth dilution method; type: functional
# Streptococcus pneumoniae [16] = assay: Antimicrobial activity against penicillin-resistant Streptococcus pneumoniae by broth dilution method; type: functional
# Streptococcus viridans = assay: Antimicrobial activity against Streptococcus viridans by broth dilution method; type: functional
# Corynebacterium jeikeium = assay: Antimicrobial activity against Corynebacterium jeikeium by broth dilution method; type: functional
# Listeria monocytogenes = assay: Antimicrobial activity against Listeria monocytogenes by broth dilution method; type: functional
# Moraxella catarrhalis = assay: Antimicrobial activity against Moraxella catarrhalis by broth dilution method; type: functional
# Haemophilus influenzae [17] = assay: Antimicrobial activity against Haemophilus influenzae by broth dilution method; type: functional
# Haemophilus influenzae [18] = assay: Antimicrobial activity against beta-lactamase negative Haemophilus influenzae by broth dilution method; type: functional
# Haemophilus influenzae [19] = assay: Antimicrobial activity against beta-lactamase positive Haemophilus influenzae by broth dilution method; type: functional
# Haemophilus influenzae [20] = assay: Antimicrobial activity against ampicillin-nonsusceptible beta-lactamase negative Haemophilus influenzae by broth dilution method; type: functional
# Streptococcus sp = assay: Antimicrobial activity against streptococcal sp. by broth dilution method
compound,measurement,setting,value
Cn1nnc(-c2ccc(-c3ccc(N4C[C@H](CO)OC4=O)cc3F)cn2)n1 [TEDIZOLID],MBC,Staphylococcus aureus [1],> 16 µg/mL
same,MIC50,Staphylococcus aureus [1],4 µg/mL
same,MIC90,Staphylococcus aureus [1],8 µg/mL
same,MBC50,Staphylococcus aureus [2],2 µg/mL
same,MIC50,Staphylococcus aureus [2]; Staphylococcus aureus,0.5 µg/mL
same,MIC90,Staphylococcus aureus [2]; Staphylococcus aureus,1 µg/mL
same,MBC50,Staphylococcus aureus [3],16 µg/mL
same,MBC90,Staphylococcus aureus [3],32 µg/mL
same,MBC,Staphylococcus aureus [3]; Staphylococcus aureus,1 µg/mL
same,MIC,Staphylococcus aureus [3]; Staphylococcus aureus,0.25 µg/mL
same,MIC50,Staphylococcus aureus [3]; Staphylococcus aureus,0.25 µg/mL
same,MIC90,Staphylococcus aureus [3]; Staphylococcus aureus,0.5 µg/mL
same,MBC50,Staphylococcus aureus [4],4 µg/mL
same,MBC90,Staphylococcus aureus [4],16 µg/mL
same,MBC,Staphylococcus aureus [4]; Staphylococcus aureus,> 0.5 µg/mL
same,MIC50,Staphylococcus aureus [4]; Staphylococcus aureus,0.5 µg/mL
same,MIC90,Staphylococcus aureus [4]; Staphylococcus aureus,0.5 µg/mL
same,MBC50,Staphylococcus sp. [5],8 µg/mL
same,MBC90,Staphylococcus sp. [5],32 µg/mL
same,MBC,Staphylococcus sp. [5]; Staphylococcus sp.,> 0.5 µg/mL
same,MIC50,Staphylococcus sp. [5]; Staphylococcus sp.,0.25 µg/mL
same,MIC90,Staphylococcus sp. [5]; Staphylococcus sp.,0.5 µg/mL
same,MIC50,Staphylococcus sp. [6],0.25 µg/mL
same,MIC90,Staphylococcus sp. [6],0.5 µg/mL
same,MBC50,Staphylococcus aureus [7],0.5 µg/mL
same,MBC90,Staphylococcus aureus [7],1 µg/mL
same,MBC,Staphylococcus aureus [7]; Staphylococcus aureus,0.5 µg/mL
same,MIC50,Staphylococcus aureus [7]; Staphylococcus aureus,0.25 µg/mL
same,MIC90,Staphylococcus aureus [7]; Staphylococcus aureus,1 µg/mL
same,MBC50,Staphylococcus sp. [8],16 µg/mL
same,MBC90,Staphylococcus sp. [8],32 µg/mL
same,MBC,Staphylococcus sp. [8]; Staphylococcus sp.,> 2 µg/mL
same,MIC50,Staphylococcus sp. [8]; Staphylococcus sp.,0.25 µg/mL
same,MIC90,Staphylococcus sp. [8]; Staphylococcus sp.,0.5 µg/mL
same,MBC50,Enterococcus sp.,32 µg/mL
same,MBC90,Enterococcus sp.,32 µg/mL
same,MBC,Enterococcus sp.; Enterococcus sp.,> 1 µg/mL
same,MIC50,Enterococcus sp.; Enterococcus sp.,0.5 µg/mL
same,MIC90,Enterococcus sp.; Enterococcus sp.,0.5 µg/mL
same,MBC,Enterococcus faecalis [9],> 16 µg/mL
same,MIC50,Enterococcus faecalis [9],0.5 µg/mL
same,MIC90,Enterococcus faecalis [9],0.5 µg/mL
same,MBC50,Enterococcus faecalis [10],32 µg/mL
same,MBC90,Enterococcus faecalis [10],32 µg/mL
same,MBC,Enterococcus faecalis [10]; Enterococcus faecalis,16 µg/mL
same,MIC50,Enterococcus faecalis [10]; Enterococcus faecalis,0.5 µg/mL
same,MIC90,Enterococcus faecalis [10]; Enterococcus faecalis,0.5 µg/mL
same,MBC,Enterococcus faecium [11],1 µg/mL
same,MIC50,Enterococcus faecium [11],0.5 µg/mL
same,MIC90,Enterococcus faecium [11],0.5 µg/mL
same,MBC50,Enterococcus faecium [12],32 µg/mL
same,MBC90,Enterococcus faecium [12],32 µg/mL
same,MBC,Enterococcus faecium [12]; Enterococcus faecium,16 µg/mL
same,MIC50,Enterococcus faecium [12]; Enterococcus faecium,0.5 µg/mL
same,MIC90,Enterococcus faecium [12]; Enterococcus faecium,0.5 µg/mL
same,MBC50,Streptococcus pneumoniae [13],1 µg/mL
same,MBC90,Streptococcus pneumoniae [13],2 µg/mL
same,MBC,Streptococcus pneumoniae [13]; Streptococcus pneumoniae,0.5 µg/mL
same,MIC50,Streptococcus pneumoniae [13]; Streptococcus pneumoniae,0.25 µg/mL
same,MIC90,Streptococcus pneumoniae [13]; Streptococcus pneumoniae,0.25 µg/mL
same,MBC50,Streptococcus pneumoniae [14],1 µg/mL
same,MBC90,Streptococcus pneumoniae [14],4 µg/mL
same,MBC,Streptococcus pneumoniae [14]; Streptococcus pneumoniae,0.5 µg/mL
same,MIC50,Streptococcus pneumoniae [14]; Streptococcus pneumoniae,0.25 µg/mL
same,MIC90,Streptococcus pneumoniae [14]; Streptococcus pneumoniae,0.25 µg/mL
same,MBC50,Streptococcus pneumoniae [15],1 µg/mL
same,MBC90,Streptococcus pneumoniae [15],1 µg/mL
same,MBC,Streptococcus pneumoniae [15]; Streptococcus pneumoniae,0.5 µg/mL
same,MIC50,Streptococcus pneumoniae [15]; Streptococcus pneumoniae,0.25 µg/mL
same,MIC90,Streptococcus pneumoniae [15]; Streptococcus pneumoniae,0.5 µg/mL
same,MBC,Streptococcus pneumoniae [16],1 µg/mL
same,MIC50,Streptococcus pneumoniae [16],0.25 µg/mL
same,MIC90,Streptococcus pneumoniae [16],0.25 µg/mL
same,MIC50,Streptococcus viridans,0.25 µg/mL
same,MIC90,Streptococcus viridans,0.25 µg/mL
same,MIC,Corynebacterium jeikeium,0.25 µg/mL
same,MIC50,Corynebacterium jeikeium,0.25 µg/mL
same,MIC90,Corynebacterium jeikeium,0.5 µg/mL
same,MIC,Listeria monocytogenes,0.25 µg/mL
same,MIC50,Listeria monocytogenes,0.25 µg/mL
same,MIC90,Listeria monocytogenes,0.25 µg/mL
same,MIC50,Moraxella catarrhalis,4 µg/mL
same,MIC90,Moraxella catarrhalis,4 µg/mL
same,MBC50,Haemophilus influenzae [17],>32 µg/mL
same,MBC90,Haemophilus influenzae [17],>32 µg/mL
same,MBC,Haemophilus influenzae [17]; Haemophilus influenzae,> 8 µg/mL
same,MIC50,Haemophilus influenzae [17]; Haemophilus influenzae,8 µg/mL
same,MIC90,Haemophilus influenzae [17]; Haemophilus influenzae,16 µg/mL
same,MBC50,Haemophilus influenzae [18],>32 µg/mL
same,MBC90,Haemophilus influenzae [18],>32 µg/mL
same,MBC,Haemophilus influenzae [18]; Haemophilus influenzae,> 16 µg/mL
same,MIC50,Haemophilus influenzae [18]; Haemophilus influenzae,8 µg/mL
same,MIC90,Haemophilus influenzae [18]; Haemophilus influenzae,16 µg/mL
same,MBC50,Haemophilus influenzae [19],>32 µg/mL
same,MIC90,Haemophilus influenzae [19],>32 µg/mL
same,MBC,Haemophilus influenzae [19]; Haemophilus influenzae,> 32 µg/mL
same,MIC50,Haemophilus influenzae [19]; Haemophilus influenzae,8 µg/mL
same,MIC90,"Haemophilus influenzae [19]; Haemophilus influenzae, read-out: MIC90",32 µg/mL
same,MBC50,Haemophilus influenzae [20],>32 µg/mL
same,MBC90,Haemophilus influenzae [20],>32 µg/mL
same,MBC,Haemophilus influenzae [20]; Haemophilus influenzae,> 8 µg/mL
same,MIC50,Haemophilus influenzae [20]; Haemophilus influenzae,8 µg/mL
same,MIC90,Haemophilus influenzae [20]; Haemophilus influenzae,16 µg/mL
same,MBC50,Streptococcus sp,1 µg/mL
same,MBC90,Streptococcus sp,16 µg/mL
same,MBC,Streptococcus sp; Streptococcus sp.,0.5 µg/mL
same,MIC50,Streptococcus sp; Streptococcus sp.,0.25 µg/mL
same,MIC90,Streptococcus sp; Streptococcus sp.,0.25 µg/mL
